Key:
[1] = test system: A375 (BRAF V600E) cells; assay: p-ERK in A375 cells; assay type: cell-based
[2] = test system: A375 in which NRAS Q61K is expressed; assay: p-ERK in A375 cells expressing NRAS Q61K; assay type: cell-based; settings: A375 with mutant NRAS overexpressed, 1 hr
[3] = test system: SKBR3 breast cancer (HER2-activated wild type RAS); assay: RAS activity and p-ERK in SKBR3 cells; assay type: cell-based
[4] = test system: SK-MEL-2 melanoma (mutant NRAS Q61R); assay: p-ERK in SK-MEL-2 cells; assay type: cell-based; settings: 1 hr
[5] = test system: A549 lung cancer (mutant KRAS G12S); assay: p-ERK in A549 cells; assay type: cell-based; settings: 1 hr
[6] = test system: SK-MEL-239 tumors; assay: SK-MEL-239 subcutaneous xenograft; assay type: in vivo, nude mice; settings: for growth of SK-MEL-239 tumors: daily for 32 days, 75 mg/kg vemurafenib or 100 mg/kg BGB659; for ERK signaling in SK-MEL-239 tumors: tumor extracts, Western blot, 75 mg/kg vemurafenib or 100 mg/kg BGB659 daily
[7] = test system: SK-MEL-239 C4 tumors (p61 V600E); assay: SK-MEL-239 C4 subcutaneous xenograft; assay type: in vivo, nude mice; settings: for activity against SK-MEL-239 C4 tumors (growth): daily for 32 days, 75 mg/kg vemurafenib or 100 mg/kg BGB659
[8] = Tolerability of daily dosing in mice; assay type: in vivo; settings: 100 mg/kg given daily
[9] = test system: second site of the WT RAF dimer in SK-MEL-30 NRAS mutant cells; assay type: cell-based; settings: p-ERK; first site occupied by LGX818
[10] = test system: BRAF V600E T529N or p61 BRAF V600E T529N; assay: ERK signaling in cells expressing BRAF gatekeeper mutants; assay type: cell-based; settings: cells expressing BRAF V600E T529N or p61 BRAF V600E T529N (gatekeeper mutation)
[11] = test system: RAF mutants that constitutively dimerize; assay: ERK signaling in SKBR3 cells expressing RAF mutants that constitutively dimerize; assay type: cell-based; settings: SKBR3, 1 μM drug, 1 hr
[12] = test system: SK-MEL-239 parental cells (BRAF V600E); assay: p-ERK inhibition in SK-MEL-239 parental cells; assay type: cell-based; settings: read-out: concentration inhibiting monomer driven signaling (p-ERK IC50)
[13] = test system: SK-MEL-239 C4 clone (which expresses p61 BRAF V600E); assay: p-ERK inhibition in SK-MEL-239 C4 clone; assay type: cell-based; settings: read-out: concentration inhibiting dimer signaling (p-ERK IC50)
[14] = test system: SK-MEL-30 (NRAS Q61K) cells; assay: p-ERK in SK-MEL-30 cells, with and without drug washout; assay type: cell-based
[15] = test system: BRAF V600E tumor cells; assay: ERK phosphorylation after drug washout in BRAF V600E tumor cells; assay type: cell-based; settings: 1 hr exposure then washout
[16] = target: p61 BRAF V600E (Homo sapiens, UniProt P15056, DEL169-380/V600E); assay: ERK signaling; assay type: cell-based; settings: SKBR3, drug 1 hr
[17] = target: BRAF/CRAF heterodimers (Homo sapiens, UniProt P04049+P15056); assay: Induction of BRAF/CRAF heterodimers; assay type: cell-based; settings: HeLa and two melanoma cell lines with mutant NRAS, 1 hr
[18] = test system: JVM-3, a BRAF K601N CLL cell line; assay: ERK signaling and proliferation of JVM-3; assay type: cell-based
[19] = SK-MEL-30 (mutant NRAS, WT RAF)
[20] = SK-MEL-30, 3 μM for 1 hr then washout

Question: With `CC(C)(N)c1cc(C(=O)N[C@@H]2CCc3ccc(Oc4ccnc5c4CCC(=O)N5)cc3C2)cc(C(F)(F)F)c1` [BGB659] as the molecule, how does the “inhibition of ERK signaling at 1 μM” value ([1]; A375, 1 μM, 1 hr) read?
Answer: Its value is “almost complete inhibition”.

Question: And the IC50 ([1]; read-out: IC50 for inhibition of ERK signaling, A375, 1 hr)?
Answer: The IC50 was 100 to 300 nM.

Question: And the “inhibition of ERK signaling at 1 μM” value [2]?
Answer: The value was “almost complete inhibition”.

Question: What about the “decline of ERK phosphorylation” value ([3]; SKBR3, 1 μM, 1 hr) of the same molecule?
Answer: Its value is 40%.

Question: And the “ERK phosphorylation at 10 μM” value ([3]; SKBR3, 10 μM, 1 hr)?
Answer: The value was “approached complete inhibition”.

Question: And the “decline of ERK phosphorylation” value ([4]; SK-MEL-2, 1 μM)?
Answer: The value was 40%.

Question: And the “ERK phosphorylation at 10 μM” value ([4]; SK-MEL-2, 10 μM)?
Answer: Its value is “approached complete inhibition”.

Question: What about the “ERK phosphorylation at 1 μM” value ([5]; A549, 1 μM) of the same molecule?
Answer: Its value is “declined to pretreatment levels”.

Question: What about the “ERK phosphorylation at 10 μM” value ([5]; A549, 10 μM) of the same molecule?
Answer: The value was “some residual activity remained”.

Question: And the “growth of SK-MEL-239 tumors” value [6]?
Answer: Its value is “effectively inhibited”.

Question: What about the “ERK signaling in SK-MEL-239 tumors” value [6] of the same molecule?
Answer: Its value is “potently inhibited”.

Question: What about the “activity against SK-MEL-239 C4 tumors (growth)” value [7] of the same molecule?
Answer: The value was “had activity”.

Question: What about the “ERK signaling in SK-MEL-239 C4 tumors” value ([7]; tumor extracts, Western blot, 75 mg/kg vemurafenib or 100 mg/kg BGB659 daily) of the same molecule?
Answer: The value was “only BGB659 inhibited”.

Question: And the “weight loss or other toxicity” value [8]?
Answer: The value was “unassociated with weight loss or other obvious toxicity”.

Question: What about the “potency for inhibition of monomers and the second site of dimers” value [9] of the same molecule?
Answer: Its value is 100 to 300 nM.

Question: And the “ERK signaling resistant to the drug” value [10]?
Answer: Its value is “resistant”.

Question: And the “sensitivity of ERK signaling driven by RAF mutants that constitutively dimerize” value [11]?
Answer: The value was “sensitive”.

Question: For `COC(=O)N[C@@H](C)CNc1nccc(-c2cn(C(C)C)nc2-c2cc(Cl)cc(NS(C)(=O)=O)c2F)n1` [LGX818], which IC50 [12] is on record?
Answer: Its IC50 is 14 nM.

Question: What about the IC50 [13] of the same molecule?
Answer: Its IC50 is 287 nM.

Question: And the “concentration of peak induction of ERK” value [14, 19]?
Answer: The value was 100 nM.

Question: And the “concentrations causing concentration-dependent inhibition of ERK signaling” value [14, 19]?
Answer: Its value is 300 to 3000 nM.

Question: And the “half-time of p-ERK rise after drug washout” value [14, 20]?
Answer: Its value is 10 min.

Question: And the “p-ERK 24 hr after washout relative to basal” value [14, 20]?
Answer: Its value is “three fold elevated compared to basal”.

Question: What about the “maximum p-ERK after drug washout relative to basal” value ([14]; SK-MEL-30, 3 μM for 1 hr then washout, maximum approximately 1 hr after washout) of the same molecule?
Answer: The value was “about five times higher than basal”.

Question: And the “p-ERK after drug washout” value ([1]; A375, 3 μM for 1 hr then washout)?
Answer: The value was “remained inhibited in A375 for up to 24 hr”.

Question: And the “ERK phosphorylation 1 hr after washout of the drug” value [15]?
Answer: Its value is “remains inhibited”.

Question: With `CC(C)(C)c1nc(-c2cccc(NS(=O)(=O)c3c(F)cccc3F)c2F)c(-c2ccnc(N)n2)s1` [dabrafenib] as the molecule, how does the “fold higher concentrations required to inhibit ERK driven by p61 V600E dimers than by p61 V600E R509H monomers” value [16] read?
Answer: The value was “same relative difference”.

Question: What about the “induction of BRAF/CRAF heterodimers” value [17] of the same molecule?
Answer: Its value is “equivalent and much greater than that caused by vemurafenib”.

Question: Which “RAS activity and ERK signaling” value ([3]; SKBR3, 1 hr exposure) does the source give for `CS(=O)(=O)CCNCc1ccc(-c2ccc3ncnc(Nc4ccc(OCc5cccc(F)c5)c(Cl)c4)c3c2)o1` [lapatinib] here?
Answer: The value was “potently suppressed”.

Question: Which results are given for `CCCS(=O)(=O)Nc1ccc(F)c(C(=O)c2c[nH]c3ncc(-c4ccc(Cl)cc4)cc23)c1F` [vemurafenib]?
Answer: effect on ERK signaling [14, 19]: activates ERK signaling; growth of SK-MEL-239 tumors [6]: effectively inhibited; ERK signaling in SK-MEL-239 tumors [6]: potently inhibited; activity against SK-MEL-239 C4 tumors (growth) [7]: only the latter had activity; effect on ERK signaling and proliferation of JVM-3 [18]: resistant; ERK signaling resistant to the drug [10]: resistant; ERK phosphorylation 1 hr after washout of the drug [15]: returned to pre-exposure levels; sensitivity of ERK signaling driven by RAF mutants that constitutively dimerize [11]: resistant
